For orientation: IC50 means the midpoint of a concentration-inhibition curve.

Consider 8 molecules from patent publication US20120121591A1 (priority 2009, published 2012).

Type in all cases: cell-based
In assay [1] the test system is IFN-g secretion from T cells in human whole blood. To be noted: read-out: WB (IFNg) IC50 (nM, Avg).
Assay [2] has as its system IL-2 secretion from T cells in human whole blood. The conditions noted are these: read-out: WB (IL-2) IC50 (nM, Avg).
For another assay, the target named is hKv1.3 (Homo sapiens, UniProt P22001). Kind of assay: cell-based. The conditions noted are these: Kv1.3 (IWQ) IC50 (nM, Avg).
Sequence of hKv1.3 (P22001 whole entry): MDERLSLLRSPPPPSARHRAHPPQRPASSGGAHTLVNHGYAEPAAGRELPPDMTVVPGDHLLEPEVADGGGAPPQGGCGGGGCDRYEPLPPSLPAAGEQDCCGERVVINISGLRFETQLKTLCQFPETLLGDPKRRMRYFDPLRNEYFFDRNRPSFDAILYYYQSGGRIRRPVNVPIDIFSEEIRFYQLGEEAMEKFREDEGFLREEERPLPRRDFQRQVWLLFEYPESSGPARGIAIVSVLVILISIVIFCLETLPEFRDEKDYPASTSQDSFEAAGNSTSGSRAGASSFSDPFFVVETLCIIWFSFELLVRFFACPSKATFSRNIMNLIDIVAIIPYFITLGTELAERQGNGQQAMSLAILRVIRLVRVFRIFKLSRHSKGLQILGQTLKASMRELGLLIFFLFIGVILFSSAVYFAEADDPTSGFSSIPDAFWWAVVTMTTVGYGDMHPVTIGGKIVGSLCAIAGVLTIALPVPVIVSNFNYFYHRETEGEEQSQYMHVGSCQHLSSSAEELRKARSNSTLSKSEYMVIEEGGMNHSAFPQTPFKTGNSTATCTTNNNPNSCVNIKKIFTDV

Turning to `CC[C@H](C)[C@@H]1NC(=O)[C@H]([C@@H](C)O)NC(=O)[C@H](CC(=O)O)NC(=O)[C@H](CCC(=O)O)NC(=O)[C@@H](NC(=O)[C@H](CO)NC(=O)[C@@H](N)CCCNC(=N)N)CSSC[C@@H](C(=O)O)NC(=O)[C@H]([C@@H](C)O)NC(=O)CNC(=O)[C@@H]2CSSC[C@@H]3NC(=O)[C@H](CCCCN)NC(=O)[C@H](C)NC(=O)[C@H](C)NC(=O)[C@H]([C@@H](C)O)NC(=O)[C@H](CSSC[C@H](NC(=O)[C@H](Cc4ccccc4)NC(=O)[C@H](CO)NC(=O)[C@H](CC(C)C)NC(=O)[C@H](CCCNC(=N)N)NC(=O)[C@H](Cc4ccc(O)cc4)NC(=O)[C@H](CCCCN)NC(=O)[C@H](CCSC)NC(=O)[C@H](CO)NC(=O)[C@H](Cc4c[nH]cn4)NC(=O)[C@H](CCCCN)NC3=O)C(=O)N[C@@H](CCCNC(=N)N)C(=O)N[C@@H](CCCNC(=N)N)C(=O)N[C@@H]([C@@H](C)O)C(=O)N2)NC(=O)[C@H](CCCNC(=N)N)NC(=O)[C@H](CCCNC(=N)N)NC(=O)[C@H](CCCCN)NC(=O)[C@@H]2CCCN2C1=O` [[Glu4,Arg10,30,A1a15,Lys16]ShK], the IC50 came to 0.305 nM in assay [1], 0.209 nM in assay [2] and 0.14 nM against hKv1.3.

Take `CC[C@H](C)[C@@H]1NC(=O)[C@H]([C@@H](C)O)NC(=O)[C@H](CC(=O)O)NC(=O)[C@H](CCC(=O)O)NC(=O)[C@@H](NC(=O)[C@H](CO)NC(=O)[C@@H](N)CCCNC(=N)N)CSSC[C@@H](C(=O)N[C@@H](C)C(=O)O)NC(=O)[C@H]([C@@H](C)O)NC(=O)CNC(=O)[C@@H]2CSSC[C@@H]3NC(=O)[C@H](CCCCN)NC(=O)[C@H](Cc4ccccc4)NC(=O)[C@H](C)NC(=O)[C@H]([C@@H](C)O)NC(=O)[C@H](CSSC[C@H](NC(=O)[C@H](Cc4ccccc4)NC(=O)[C@H](CO)NC(=O)[C@H](CC(C)C)NC(=O)[C@H](CCCNC(=N)N)NC(=O)[C@H](Cc4ccc(O)cc4)NC(=O)[C@H](CCCCN)NC(=O)[C@H](CCC(N)=O)NC(=O)[C@H](CO)NC(=O)[C@H](Cc4c[nH]cn4)NC(=O)[C@H](CCCCN)NC3=O)C(=O)N[C@@H](CCCNC(=N)N)C(=O)N[C@@H](CCCCN)C(=O)N[C@@H]([C@@H](C)O)C(=O)N2)NC(=O)[C@H](CCCNC(=N)N)NC(=O)[C@H](CO)NC(=O)[C@H](CCCCN)NC(=O)[C@@H]2CCCN2C1=O` [[Glu4,Lys16,Gln21]ShK-Ala]: the 50% inhibitory concentration (IC50) in assay [1] was 0.265 nM; in assay [2], 0.137 nM; at hKv1.3, 26.4 nM.

As to `CCCC[C@@H]1NC(=O)[C@H](CO)NC(=O)[C@H](Cc2c[nH]cn2)NC(=O)[C@H](CCCCN)NC(=O)[C@@H]2CSSC[C@@H]3NC(=O)[C@H]([C@@H](C)O)NC(=O)[C@H](CCCCN)NC(=O)[C@H](CCCNC(=N)N)NC(=O)[C@H](CSSC[C@H](NC(=O)[C@H](CCCNC(=N)N)NC(=O)[C@H](CO)NC(=O)[C@H](CCCCN)NC(=O)[C@@H]4CCCN4C(=O)[C@H]([C@@H](C)CC)NC(=O)[C@H]([C@@H](C)O)NC(=O)[C@H](CC(=O)O)NC(=O)[C@H](CCC(=O)O)NC(=O)[C@@H](NC(=O)[C@H](CO)NC(=O)[C@@H](N)CCCNC(=N)N)CSSC[C@@H](C(=O)N[C@@H](C)C(=O)O)NC(=O)[C@H]([C@@H](C)O)NC(=O)CNC3=O)C(=O)N[C@@H]([C@@H](C)O)C(=O)N[C@@H](C)C(=O)N[C@@H](Cc3ccccc3)C(=O)N[C@@H](CCCCN)C(=O)N2)NC(=O)[C@H](Cc2ccccc2)NC(=O)[C@H](CO)NC(=O)[C@H](CC(C)C)NC(=O)[C@H](CCCNC(=N)N)NC(=O)[C@H](Cc2ccc(O)cc2)NC(=O)[C@H](CCCCN)NC1=O` [[Glu4,Lys16,N1e21]ShK-Ala], the concentration for half-maximal inhibition (IC50) in assay [1] came out at 0.987 nM; in assay [2], 0.327 nM; against hKv1.3 it was 33.3 nM.

As to `CCC[C@@H]1NC(=O)[C@H](CO)NC(=O)[C@H](Cc2c[nH]cn2)NC(=O)[C@H](CCCCN)NC(=O)[C@@H]2CSSC[C@@H]3NC(=O)[C@H]([C@@H](C)O)NC(=O)[C@H](CCCCN)NC(=O)[C@H](CCCNC(=N)N)NC(=O)[C@H](CSSC[C@H](NC(=O)[C@H](CCCNC(=N)N)NC(=O)[C@H](CO)NC(=O)[C@H](CCCCN)NC(=O)[C@@H]4CCCN4C(=O)[C@H]([C@@H](C)CC)NC(=O)[C@H]([C@@H](C)O)NC(=O)[C@H](CC(=O)O)NC(=O)[C@H](CCC(=O)O)NC(=O)[C@@H](NC(=O)[C@H](CO)NC(=O)[C@@H](N)CCCNC(=N)N)CSSC[C@@H](C(=O)N[C@@H](C)C(=O)O)NC(=O)[C@H]([C@@H](C)O)NC(=O)CNC3=O)C(=O)N[C@@H]([C@@H](C)O)C(=O)N[C@@H](C)C(=O)N[C@@H](Cc3ccccc3)C(=O)N[C@@H](CCCCN)C(=O)N2)NC(=O)[C@H](Cc2ccccc2)NC(=O)[C@H](CO)NC(=O)[C@H](CC(C)C)NC(=O)[C@H](CCCNC(=N)N)NC(=O)[C@H](Cc2ccc(O)cc2)NC(=O)[C@H](CCCCN)NC1=O` [[Glu4,Lys16,Nva21]ShK-Ala], the IC50 in assay [1] is 0.368 nM; in assay [2] it was 0.208 nM; on hKv1.3, 33.3 nM.

In the case of `CC[C@H](C)[C@@H]1NC(=O)[C@H]([C@@H](C)O)NC(=O)[C@H](CC(=O)O)NC(=O)[C@H](CCC(=O)O)NC(=O)[C@@H](NC(=O)[C@H](CO)NC(=O)[C@@H](N)CCCNC(=N)N)CSSC[C@@H](C(N)=O)NC(=O)[C@H]([C@@H](C)O)NC(=O)CNC(=O)[C@@H]2CSSC[C@@H]3NC(=O)[C@H](CCCCN)NC(=O)[C@H](Cc4ccccc4)NC(=O)[C@H](C)NC(=O)[C@H]([C@@H](C)O)NC(=O)[C@H](CSSC[C@H](NC(=O)[C@H](Cc4ccccc4)NC(=O)[C@H](CO)NC(=O)[C@H](CC(C)C)NC(=O)[C@H](CCCNC(=N)N)NC(=O)[C@H](Cc4ccc(O)cc4)NC(=O)[C@H](CCCCN)NC(=O)[C@H](CCSC)NC(=O)[C@H](CO)NC(=O)[C@H](Cc4c[nH]cn4)NC(=O)[C@H](CCCCN)NC3=O)C(=O)N[C@@H](CCCNC(=N)N)C(=O)N[C@@H](CCCCN)C(=O)N[C@@H]([C@@H](C)O)C(=O)N2)NC(=O)[C@H](CCCNC(=N)N)NC(=O)[C@H](CO)NC(=O)[C@H](CCCCN)NC(=O)[C@@H]2CCCN2C1=O` [[Glu4,Lys16]ShK-amide], the IC50 in assay [1] was determined as 0.068 nM; in assay [2] it was 0.071 nM; against hKv1.3, 0.127 nM.

Regarding `CC[C@H](C)[C@@H]1NC(=O)[C@H]([C@@H](C)O)NC(=O)[C@H](CC(=O)O)NC(=O)[C@H](CCC(=O)O)NC(=O)[C@@H](NC(=O)[C@H](CO)NC(=O)[C@@H](N)CCCNC(=N)N)CSSC[C@@H](C(N)=O)NC(=O)[C@H]([C@@H](C)O)NC(=O)CNC(=O)[C@@H]2CSSC[C@@H]3NC(=O)[C@H](CCCCN)NC(=O)[C@H](Cc4ccccc4)NC(=O)[C@H](C)NC(=O)[C@H]([C@@H](C)O)NC(=O)[C@H](CSSC[C@H](NC(=O)[C@H](Cc4ccccc4)NC(=O)[C@H](Cc4cccc5ccccc45)NC(=O)[C@H](CC(C)C)NC(=O)[C@H](CCCNC(=N)N)NC(=O)[C@H](Cc4ccc(O)cc4)NC(=O)[C@H](CCCCN)NC(=O)[C@H](CCSC)NC(=O)[C@H](CO)NC(=O)[C@H](Cc4c[nH]cn4)NC(=O)[C@H](CCCCN)NC3=O)C(=O)N[C@@H](CCCCN)C(=O)N[C@@H](CCCNC(=N)N)C(=O)N[C@@H]([C@@H](C)O)C(=O)N2)NC(=O)[C@H](CCCNC(=N)N)NC(=O)[C@H](CO)NC(=O)[C@H](CCCCN)NC(=O)[C@@H]2CCCN2C1=O` [[Glu4; Lys16,29;1-Na126;Arg30]ShK-amide], the half-maximal inhibitory concentration (IC50) stood at 0.598 nM in assay [1], 0.712 nM in assay [2] and 0.384 nM against hKv1.3.

As for `CC[C@H](C)[C@@H]1NC(=O)[C@H]([C@@H](C)O)NC(=O)[C@H](CC(=O)O)NC(=O)[C@H](CCC(=O)O)NC(=O)[C@@H](NC(=O)[C@H](CO)NC(=O)[C@@H](N)CCCNC(=N)N)CSSC[C@@H](C(N)=O)NC(=O)[C@H]([C@@H](C)O)NC(=O)CNC(=O)[C@@H]2CSSC[C@@H]3NC(=O)[C@H](CCCCN)NC(=O)[C@H](Cc4ccccc4)NC(=O)[C@H](C)NC(=O)[C@H]([C@@H](C)O)NC(=O)[C@H](CSSC[C@H](NC(=O)[C@H](Cc4ccccc4)NC(=O)[C@H](CO)NC(=O)[C@H](CC(C)C)NC(=O)[C@H](CCCNC(=N)N)NC(=O)[C@H](Cc4ccc(O)cc4)NC(=O)[C@H](CCCCN)NC(=O)[C@H](CCSC)NC(=O)[C@H](CO)NC(=O)[C@H](Cc4c[nH]cn4)NC(=O)[C@H](CCCCN)NC3=O)C(=O)N[C@@H](CCCCN)C(=O)N[C@@H](CCCNC(=N)N)C(=O)N[C@@H]([C@@H](C)O)C(=O)N2)NC(=O)[C@H](CCCNC(=N)N)NC(=O)[C@H](CO)NC(=O)[C@H](CCCCN)NC(=O)[C@@H]2CCCN2C1=O` [[Glu4; Lys16,29;Arg30]ShK-amide], the figures for the IC50 (in assay [1]; in assay [2]; against hKv1.3) were 0.28 nM, 0.067 nM and 0.104 nM, respectively.

As for `CC[C@H](C)[C@@H]1NC(=O)[C@H]([C@@H](C)O)NC(=O)[C@H](CC(=O)O)NC(=O)[C@H](CCC(=O)O)NC(=O)[C@@H](NC(=O)[C@H](CO)NC(=O)[C@@H](N)CCCNC(=N)N)CSSC[C@@H](C(N)=O)NC(=O)[C@H]([C@@H](C)O)NC(=O)CNC(=O)[C@@H]2CSSC[C@@H]3NC(=O)[C@H](CCCCN)NC(=O)[C@H](Cc4ccccc4)NC(=O)[C@H](C)NC(=O)[C@H]([C@@H](C)O)NC(=O)[C@H](CSSC[C@H](NC(=O)[C@H](Cc4ccccc4)NC(=O)[C@H](CO)NC(=O)[C@H](CC(C)C)NC(=O)[C@H](CCCNC(=N)N)NC(=O)[C@H](Cc4ccc(O)cc4)NC(=O)[C@H](CCCCN)NC(=O)[C@H](CCSC)NC(=O)[C@H](CO)NC(=O)[C@H](Cc4c[nH]cn4)NC(=O)[C@H](CCCNC(=N)N)NC3=O)C(=O)N[C@@H](CCCCN)C(=O)N[C@@H](CCCNC(=N)N)C(=O)N[C@@H]([C@@H](C)O)C(=O)N2)NC(=O)[C@H](CCCNC(=N)N)NC(=O)[C@H](CO)NC(=O)[C@H](CCCCN)NC(=O)[C@@H]2CCCN2C1=O` [[Glu4; Lys16, 29;Arg18, 30]ShK-amide], the half-inhibitory concentration (IC50) is 0.353 nM in assay [1], 0.203 nM in assay [2] and 0.192 nM at hKv1.3.
